Consider 27 molecules from PubChem BioAssay (NCI).

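How tested: cells in 96-well plates exposed to compound for 48 hours at five concentrations. Here, GI50 denotes the concentration required for 50% inhibition of growth. TGI: concentration producing complete growth inhibition.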

For this assay, the system named is MDA-MB-468 breast. Put plainly: NCI anticancer screen, dose series, 48 h.

For `COc1cc2c(c(OC)c1O)C(=O)C(OC)C(c1ccc(O)c(O)c1)O2` (centres undefined), the GI50 is 464 nM and the TGI worked out at 33.3 µM.
On to `Clc1ccc2oc3c(NCCCN4CCOCC4)c4ccccc4nc3c2c1`, for which the GI50 is 1490 nM and the TGI is 3.5 µM.
Regarding `CC(=O)[O][Hg][c]1c(N)c(C)cc(C)c1F`, the GI50 is 1340 nM and the TGI came to 2.74 µM.
In the case of `Cc1cc2nc(C(Cl)Cl)nc(-c3ccc(Cl)cc3)n2n1`, the GI50 is 299 nM and the TGI was determined as 1.12 µM.
With `Cc1nc2c(nc1C)C(=O)c1ccccc1C2=O`, the GI50 was 1500 nM and the TGI is 6.04 µM.
For `COc1c2ccoc2c(/C=C/C=O)c2oc(-c3ccccc3)cc(=O)c12` the same measures were 7020 nM and 22.2 µM.
As for `COc1cc2nc(-c3ccc(C(F)(F)F)cc3)cc(OCCCN3CCC(O)CC3)c2cc1OC`, the GI50 is 1630 nM and the TGI came to 11.3 µM.
On to `O=C1c2ccccc2C(=O)c2sc(Nc3cccc(Cl)c3)nc21`, for which the GI50 was 1770 nM and the TGI was found to be 3.89 µM.
Take `O=C(Nc1ccc(F)cc1F)c1cc(I)ccc1O`: the GI50 was 2550 nM and the TGI is 6.88 µM.
Regarding `O=C(CCl)N1c2ccccc2Oc2ccc3ccccc3c21`, the GI50 was 973 nM and the TGI was determined as 2.45 µM.
On to `COc1ccc(-c2cc(-c3ccc(Nc4nc(Nc5ccccc5)nc(Nc5ccc(Cl)cc5)n4)cc3)nc(N)c2C#N)cc1`, for which the GI50 is 1150 nM and the TGI turned out to be 3.05 µM.
On to `CCCCCCCC(=O)SCC/C=C/[C@@H]1CC(=O)NCc2cccc(n2)C2=N[C@@](C)(CS2)C(=O)N[C@@H](C(C)C)C(=O)N1`, for which the GI50 was 535 nM and the TGI is above 33.3 µM.
For `CNC(=O)c1cc(Oc2ccc3nc(NC(=O)Nc4ccc(Cl)c(C(F)(F)F)c4)sc3c2)ccn1` the same measures were 1360 nM and 4.1 µM.
As for `O=C(NCCNc1nccc(-c2c(-c3cccc(O)c3)nc3sccn23)n1)c1ccccc1O`, the GI50 is 2640 nM and the TGI amounted to 21 µM.
With `COc1cc(C(=O)/C=C/c2sc(Cl)nc2Cl)cc(OC)c1OC`, the GI50 is 1830 nM and the TGI turned out to be 3.7 µM.
For `Cn1ccnc1C(=O)/C=C/c1ccc(CC(=O)Nc2ccc(Br)cc2)cc1` the same measures were 2700 nM and 6.62 µM.
With `O=c1n(CC2CO2)c(=O)n(CC2CO2)n1CC1CO1` (centres undefined), the GI50 is 2290 nM and the TGI was 16.8 µM.
For `Nc1cc2nc3ccccc3sc-2cc1=O`, in that order: 3740 nM and 16.1 µM.
For `Fc1ccc(Nc2ncnc3ccc(-c4cnc5[nH]ccc5c4)cc23)cc1Cl` the same measures were 115 nM and 0.575 µM.
In the case of `CSc1ccccc1C#C/C=C\C#Cc1ccccc1N1CCCC1=O`, the GI50 was 1890 nM and the TGI turned out to be 13.8 µM.
For the molecule `NC(CSC(c1ccccc1)(c1ccccc1)c1ccc2c(c1)OCO2)C(=O)O` (centres undefined), the GI50 is 254 nM and the TGI is 0.672 µM.
Consider `CCOc1ccccc1-n1c(CN2CCN(C(=O)COc3ccc(CNCCCCCCN4C5CCCC4CC(OC(=O)Nc4cc(C)ccc4OC)C5)cc3)CC2)nc2ccccc2c1=O` (centres undefined), for which the GI50 is 786 nM and the TGI came out at 2.42 µM.
Consider `CC(C)c1ccc(C(C)C(=O)N(CC2=C(C(C)c3ccccn3)c3ccccc3C2)C(C)C)cc1` (centres undefined), for which the GI50 was 2780 nM and the TGI was 41.7 µM.
Take `COC(=O)Nc1nc2ccc(S(=O)c3ccccc3)cc2[nH]1` (centres undefined): the GI50 is 1940 nM and the TGI turned out to be 8.29 µM.
With `CCOC(=O)Nc1nc2ccc(OCC)cc2s1`, the GI50 is 2080 nM and the TGI was above 100 µM.
`NC1CCC(Nc2nc(NCc3ccc(-c4ccco4)nc3)c3ncn(C4CCCC4)c3n2)CC1` (centres undefined): the GI50 was 8.41 nM and the TGI is 0.0349 µM.
As to `O=C(CN1CCN(c2cc3c(cc2F)c(=O)c(C(=O)N/N=C/c2ccccc2O)cn3C2CC2)CC1)N/N=C\c1ccccc1O`, the GI50 was 599 nM and the TGI came to 2.96 µM.
